Where a SMILES comes first, the peptide text is derived from it.
SMILES | logP
CCOC(=O)c1cccc2c1C(=O)C(=O)N(CC)C2=O | 1.31
CC(O)COc1ccccc1 (centres undefined) | 1.61
C#CCC(O)(c1cccnc1)c1ccc2ccccc2c1 (centres undefined) | 2.14
CNC(=O)OCc1c2c(n3c1C(OC(C)=O)CC3)C(=O)C(C)=C(OC)C2=O (centres undefined) | 2.39
O=c1[nH]c(Nc2ccccc2)nc2c1ncn2CCO | 0.83
Clc1cc(Cl)cc(-c2c(Cl)cc(Cl)c(Cl)c2Cl)c1 | 7.1
CCCCOC(=O)n1cc(F)c(=O)[nH]c1=O | 0.89
CCN1C(=O)C(=O)c2cccc(OC)c2C1=O | 0.94
CCOc1ncnc2c1ncn2C1OC(CO)CC1F (centres undefined) | 0.8
Cc1ccc(C(=O)COc2c(C(=O)c3ccc(Cl)c(C)c3Cl)c(C)nn2C)cc1 | 4.69
CO[C@@]1(NC(=O)C(C(=O)O)c2ccc(O)cc2)C(=O)N2C(C(=O)O)=C(CSc3nnnn3C)CO[C@@H]21 (some centres undefined) | -0.58
COc1nc(N)nc(C(Cl)(Cl)Cl)n1 | 2.39
Clc1cc(Cl)c(-c2cc(Cl)c(Cl)c(Cl)c2)c(Cl)c1 | 7.25
CCC(=O)c1ccc2c(c1)N(CC(C)N(C)C)c1ccccc1S2 (centres undefined) | 4.79
Cc1nonc1Cc1ccc([N+](=O)[O-])cc1 | 2.21
CCCSP(=O)(OCC)Oc1cnn(-c2ccc(Cl)cc2)c1 (centres undefined) | 3.77
CCC(=O)C(CS(=O)(=O)c1ccc(C)cc1)c1ccc(OC)cc1 (centres undefined) | 2.47
CCN1C(=O)NC(=O)C(=O)C1=O | -0.32
CC(C)C(=O)NS(=O)(=O)c1ccc(C(F)(F)F)cc1N | 2.56
CCCCCCC(=O)N1CCCC1=O | 3.04
COCC(Cn1ccnc1[N+](=O)[O-])OC (centres undefined) | 0.06
Oc1c(I)cc(I)cc1I | 4.5
CNC(=NC#N)NCCCCc1ncccc1OC | 1.5
C#CCOc1c(Cl)cc(NC=NOC)cc1Cl | 3.3
N#CC(C#N)=NNc1c(Cl)cccc1Cl | 4.51
COc1cc(C)c2c(c1OC)-c1ccc(OC)c(=O)cc1C(NC(=O)c1ccc([N+](=O)[O-])cc1)CC2 (centres undefined) | 2.96

SMILES | logP
COCC(Cn1ccnc1[N+](=O)[O-])OC(C)=O (centres undefined) | -0.04
Cc1cc(O)cc(C)c1O | 1
CCOCCN(CCOCC)CC(O)c1cc(-c2ccc(Cl)c(Cl)c2)nc2ccccc12 (centres undefined) | 5.76
CCC(C)C(NC(C)=O)C(=O)NC(CC(C)C)C(=O)NC(CC(=O)O)C(N)=O (stereo not drawn) (Ac-Ile-Leu-Asp-NH2; configuration not given here) | -0.04
Clc1cc2c(cc1Cl)Oc1c(cc(Cl)c(Cl)c1Cl)O2 | 6.64
Cc1cc(O)c(C)c(C)c1O | 1.69
Cc1cccc(Cl)c1Cl | 3.96
CCN(CC)Cc1cccc(C(=O)Nc2c(C)cccc2C)c1 | 3.09
CCN(CC)Cc1ccc(C(=O)Nc2ccccc2C)cc1 | 3.31
Nc1nc2c(ncn2C2OC(CO)CC2F)c(=O)[nH]1 (centres undefined) | -1.18
CN(C)Cc1ccc(-c2cccc(Nc3[nH]ccc3[N+](=O)[O-])c2)o1 | 3.1
CC(C)(C)C(COc1ccc(C(F)(F)F)cc1)OC(=O)n1ccnc1 (centres undefined) | 4.15
CN1C(=O)C(=O)c2ccccc2C1=O | 0.6
CC(C)(C)NC(=O)C1CN(C(=O)OCc2ccccc2)CCN1CC(O)CC(Cc1ccccc1)C(=O)NC1c2ccccc2CC1O (centres undefined) | 4.67
Cc1[nH]c2cccc3c2c1CC1NCC(C(=O)NC2(C(C)C)OC4(O)C5CCCN5C(=O)C(C(C)C)N4C2=O)C=C31 (centres undefined) | 3.15
CCCCCNC(=O)C1(O)C(C)CC2C3CCC4=CC(=O)C=CC4(C)C3(F)C(O)CC21C (centres undefined) | 3.64
O=c1n[n+]([O-])ccn1Cc1ccccc1 | 0.19
N#CC(CCc1ccc(Cl)cc1)(Cn1cncn1)c1ccccc1 (centres undefined) | 3.23
Cc1c([N+](=O)[O-])ncn1C | -0.11
C#CCOc1c(Cl)cc(NC=NOCCCC)cc1Cl | 4.4
S=C=NCCCCCc1ccccc1 | 4.4
COC(O)Cn1c([N+](=O)[O-])nc(Br)c1Br (centres undefined) | 1.02
C=CCC1CN(C)CCC1(OC(=O)CC)c1ccccc1 (centres undefined) | 2.97
CN(C)CCn1nnnc1SCC1=C(C(=O)OCOC(=O)C(C)(C)C)N2C(=O)C(NC(=O)Cc3csc(N)n3)C2SC1 (centres undefined) | 1.57
CCOC(CNC(=O)C1(O)C(C)CC2C3CCC4=CC(=O)C=CC4(C)C3(F)C(O)CC21C)OCC (centres undefined) | 2.65
Clc1cc(Cl)c(Cl)c(-c2cc(Cl)cc(Cl)c2Cl)c1 | 7.07

SMILES | logP
CSCCCNC(=O)C(F)(F)Cn1cnc([N+](=O)[O-])n1 | 0.76
Cc1cccc(C)c1NC(=O)CN1CCN(CCCC(c2ccc(F)cc2)c2ccc(F)cc2)CC1 | 5.6
c1nnn(C23CC4CC(CC(C4)C2)C3)n1 | 2.95
Clc1cc2oc3c(Cl)cc(Cl)c(Cl)c3c2cc1Cl | 6.26
O=c1cccccc1 | 0.26
CCCN1C(=O)NC(=O)C(=O)C1=O | 0.28
CCOc1cccc(OCc2ccccc2CCCN2CCC(O)CC2)c1 | 3.5
Clc1ccc(-c2cc(Cl)c(Cl)c(Cl)c2Cl)cc1Cl | 7.6
CSC(=NOC(=O)N(C)COC1OC(C(=O)O)C(O)C(O)C1O)C(=O)N(C)C (centres undefined) | -2.52
C#CCOc1c(Cl)cc(NC=NOc2ccccc2)cc1Cl | 4.4
CCCCN(C)N=Nc1ccccc1C(N)=O | 3.52
Cc1cc(O)cc(Br)c1O | 1.38
CC1=CCC2C(C1)c1c(O)cc(NS(C)(=O)=O)cc1OC2(C)C (centres undefined) | 3.12
Clc1cc(-c2c(Cl)c(Cl)c(Cl)c(Cl)c2Cl)c(Cl)c(Cl)c1Cl | 9.14
CCCn1c(=O)c2nc(-c3ccccc3N)[nH]c2n(CCC)c1=O | 3.54
CC(=O)OC1C(=O)C2(C)C(O)CC3OCC3(OC(C)=O)C2C(OC(=O)c2ccccc2)C2(O)CC(OC(=O)C(O)Cc3ccccc3)C(C)=C1C2(C)C (centres undefined) | 2.9
Cc1n[nH]c(C(=O)N2CCCCC2)c1[N+](=O)[O-] | 0.79
O=S1(=O)NC(C2CC=CC2)=Nc2ccccc21 | 1.53
CCCOc1ccccc1NC(=O)OCCN1CCOCC1 | 2.78
CCCC(CCC)(NC(C)=O)C(N)=O | 0.75
CCCCCCOc1ccccc1NC(=O)OCCN1CCOCC1 | 4.24
Cc1nc([N+](=O)[O-])c(Cl)n1C | 0.34
CCCn1c(=O)c2[nH]c(-c3ccc(S(=O)(=O)NCCN(C)C)cc3)nc2n(CCC)c1=O | 3.32
O=c1cc[nH]cc1 | -1.3
Clc1cccc(-c2c(Cl)c(Cl)c(Cl)c(Cl)c2Cl)c1 | 7.3
CC(C)N(C=Nc1ccn(C2CC(O)C(CO)O2)c(=O)n1)C(C)C (centres undefined) | 0.17

SMILES | logP
Cc1ccc(Cl)c(Cl)c1Cl | 4.56
CC1(CO)COC(Cn2cncn2)(c2ccc(Cl)cc2Cl)OC1 (centres undefined) | 2.1
CCCCC(NC(Cc1ccccc1)C(=O)N1CCC(OCOC)CC1)C(=O)NC(CC1CCCCC1)C(O)CC(C(=O)NCCCNCCO)C(C)C (centres undefined) | 3.5
C#CCC(O)(c1cccnc1)c1ccc(Cl)c(Cl)c1 (centres undefined) | 2.42
Cc1n[nH]c(C(=O)NC2CCCC2)c1[N+](=O)[O-] | 1.24
CN(C)c1nc(=O)n(C2CCCCC2)c(=O)n1C | 1.85
COc1ncnc2c1ncn2C1OC(CO)CC1F (centres undefined) | 0.25
OC1CCN(CCCc2ccccc2CSc2ccccc2)CC1 | 3.85
O=S(=O)(NCc1ccccc1)C(F)(F)F | 2.91
COc1c([N+](=O)[O-])nc(C)n1C | -0.09
CC(C)CC(C)CC(C)OC(=O)c1ccc(NC(=O)N(C)C)cc1Cl (centres undefined) | 5.15
OC1CCN(CCCc2ccccc2COc2ccccc2)CC1 | 3.21
CCCCCCCOc1cccc(NC(=O)OCCN2CCOCC2)c1 | 5.28
O=C(O)C(Cc1ccc(F)cc1)n1cccc1 (centres undefined) | 2.04
C#CCOc1c(Cl)cc(NC=NOC(C)C)cc1Cl | 3.9
O=C(O)CCCCCNCCc1ccccc1 | -1.3
Oc1ccc(F)c2cccnc12 | 2.3
CSC(SC)=C(C(=O)OC(C)C)C(=O)OC(C)C | 3.38
O=[N+]([O-])C=C1NCCN1Cc1cccnc1 | -1.02
COC(=O)C(C#N)=NNc1ccc(S(=O)(=O)C(F)(F)F)cc1 | 4.22
C=CCn1cnc2c(=O)[nH]c(Nc3ccccc3)nc21 | 1.75
CC12CCC(=O)C=C1CCC1C2CCC2(C)C1CCC2(O)C(O)CO (centres undefined) | 2
CC1CC2C3CCC4=CC(=O)C=CC4(C)C3(F)C(O)CC2(C)C1(O)C(=O)NC(CO)c1ccccc1 (centres undefined) | 2.89
O=C1OC(O)C(C(Cl)Cl)=C1Cl (centres undefined) | 1.13
Cc1ncc([N+](=O)[O-])n1CCc1ccncc1 | 0.06
O=NN(CCCl)C(=O)NC1CCCCC1C(=O)O (centres undefined) | 2.01

SMILES | logP
Cc1ccccc1C(=O)OCC1CCC(n2cnc3c(=O)[nH]cnc32)O1 (centres undefined) | 1.02
CS(=O)(=O)ON1C(=O)c2ccc(N)cc2C1=O | 0.8
C=CCOC1=NS(=O)(=O)c2ccccc21 | 1.4
Clc1cccc(-c2cc(Cl)c(Cl)c(Cl)c2Cl)c1Cl | 7.32
COC(=O)NCCn1c([N+](=O)[O-])cnc1C | 0.02
CCCCCCOc1ccc(NC(=O)OCCN2CCOCC2)cc1 | 4.51
CCOC(=O)C(C)Oc1ccc(Oc2cnc3cc(C(F)(F)F)ccc3n2)cc1 (centres undefined) | 4.37
Cc1cccc(C)c1NC(=O)c1ccc(CN2CCCC2)cc1 | 3.14
COC(C)(C(=O)O)c1ccccc1 (centres undefined) | 1.64
Cc1cc(NC(=O)C2=C(O)c3ccccc3S(=O)(=O)N2C)no1 | 2.83
CC1CCCC(C)C1NC(=O)N(CCCl)N=O (centres undefined) | 2.57
CN1CC(O)N(c2nnc(C(C)(C)C)s2)C1=O (centres undefined) | 1.49
C#CCOc1c(Cl)cc(NC=NOCC=CCl)cc1Cl | 3.9
S=C=NCCCc1ccccc1 | 3.8
CC(=O)N(CC(O)CO)c1c(I)c(C(=O)NCCO)c(I)c(C(=O)NCCO)c1I (centres undefined) | -1.86
COc1ccc2c(C)cc(=O)n3c(C)cc1c23 | 2.84
Cc1ncc([N+](=O)[O-])n1CCSC(=S)N(C)C | 1.28
O=[N+]([O-])C=C1NCCN1Cc1ccccc1 | 0.33
Clc1cc(Cl)cc(-c2cccc(Cl)c2Cl)c1 | 6.17
CCC(C)(C)c1ccc(C2CCCC(O)C2)c(O)c1 (centres undefined) | 4.32
c1ccc(OCc2cccc(CN3CCCC3)c2)cc1 | 3.75
O=C(O)c1ccc([N+](=O)[O-])c(O)c1 | 1.98
CC(O)CNC(=O)C(F)(F)Cn1cnc([N+](=O)[O-])n1 (centres undefined) | -0.47
COCC(O)Cn1ncc([N+](=O)[O-])n1 (centres undefined) | -0.07
CCCCCC1CC(C(=O)NC(C(C)O)C2OC(SC)C(O)C(O)C2O)N(C)C1 (centres undefined) | 0.93
